# From patent US4467086A, “Cephalosporin antibiotic” (Glaxo Group Limited, priority 1979, dated 1984)
# Structures can show the parent of a compound that is named as a salt.
# How the values were obtained:
# indolepositive Proteus = assay: antibacterial activity, indole-positive Proteus; format: cell-based; settings: organisms normally difficult to combat with β-lactam antibiotics
# Serratia = assay: antibacterial activity, Serratia; format: cell-based; settings: organisms normally difficult to combat with β-lactam antibiotics
# Providence = assay: antibacterial activity, Providence; format: cell-based; settings: organisms normally difficult to combat with β-lactam antibiotics
# Pseudomonas organisms = assay: antibacterial activity, Pseudomonas; format: cell-based; settings: organisms normally difficult to combat with β-lactam antibiotics
# bacteria = assay: antibacterial properties: human serum effect, inoculum effect, bactericidal action; format: cell-based
# gram-negative bacteria = assay: experimental infections in mice with gram-negative bacteria; format: in vivo
# Pseudomonas aeruginosa = assay: experimental infections in mice with Pseudomonas aeruginosa; format: in vivo
# [1] = pharmacokinetics in human volunteers; format: in vivo
# early clinical results = format: in vivo, human
# [2] = storage stability of the solid; format: physicochemical
# [3] = in vivo
# [4] = test system: gram-negative organisms, including many β-lactamase-producing gram-negative strains; settings: as described in UK Patent Specification No. 2025398, cited from earlier work
Compound,activity against indole-positive Proteus (indolepositive Proteus),activity against Serratia (Serratia),activity against Providence (Providence),activity against Pseudomonas (Pseudomonas organisms),effect of human serum on antibacterial properties (bacteria),treatment of experimental infections (gram-negative bacteria),protection against Pseudomonas aeruginosa infection (Pseudomonas aeruginosa),protection compared with aminoglycoside treatment (Pseudomonas aeruginosa; versus an aminoglycoside such as amikacin),serum levels after injection [1],clinical antibiotic properties (early clinical results),"stability ([2]; amorphous solid, especially at elevated temperatures)",distribution in the body [3],antibiotic activity spectrum [4],activity against gram-negative organisms ([4]; including many β-lactamase-producing gram-negative strains),"stability ([2]; crystalline form, stored for an extended period at a temperature of 50° C.)"
"CC(C)(O/N=C(\C(=O)N[C@@H]1C(=O)N2C(C(=O)[O-])=C(C[n+]3ccccc3)CS[C@H]12)c1csc(N)n1)C(=O)O [ceftazidime, (6R,7R)-7-[(Z)-2-(2-aminothiazol-4-yl)-2-(2-carboxyprop-2-oxyimino)acetamido]-3-(1-pyridiniummethyl)ceph-3-em-4-carboxylate]",excellent activity,excellent activity,excellent activity,excellent activity,not impaired,successfully treated,excellent protection,comparable,high and long lasting,reproduces in the clinic the excellent antibiotic properties,not particularly satisfactory,well distributed,broad spectrum antibiotic activity,unusually high activity,–
"CC(C)(O/N=C(\C(=O)N[C@@H]1C(=O)N2C(C(=O)[O-])=C(C[n+]3ccccc3)CS[C@H]12)c1csc(N)n1)C(=O)O [(6R,7R)-7-[(Z)-2-(2-aminothiazol-4-yl)-2-(2-carboxyprop-2-oxyimino)acetamido]-3-(1-pyridiniummethyl)ceph-3-em-4-carboxylate bishydrochloride]",–,–,–,–,–,–,–,–,–,–,–,–,–,–,remarkably stable
